The text below walks through data of US9044481B2 (GlaxoSmithKline Biologicals S.A., priority 2009, dated 2015).

For the experiment, the system named is C57BL/6 female mice. The experiment can be described thus: Innate cytokines and chemokines in sera of vaccinated mice (SIV-p27 model, AS01B + TLR7-L liposomes). It counts as in vivo. The note with it: for IL-6 in sera / TNF-α in sera / chemokine MCP-1 in sera: after injection, DPPC liposomes with SIV-p27 and AS01B, vs AS01B reference group. An excerpt:
We evaluated the capacity of TLR7 ligands to promote various aspects of the immune response in mice. Innate immunity was specifically investigated to conclude whether lipidated TLR7 compounds were able to induce innate chemokines and pro-inflammatory cytokines. This innate immune response provides the body with initial, non-specific protection against pathogens. Among these innate chemokines and cytokines, type I IFN is thought to be required for the programming of naïve CD8 T-cell with respect to survival, differentiation and memory development.
10.4 ml of lipidated-TLR7-L A1 at 10 mg/ml in chloroform were transferred into a round-bottomed glass vial. To this vial were added 18.4 ml of DPPC solubilised in chloroform at 100 mg/ml. 21.9 ml of lipidated-TLR7-L compound A3 solubilized at 5 mg/ml in chloroform were transferred into a round-bottomed glass vial. To this vial were added 20 ml of DPPC solubilised in chloroform at 100 mg/ml. Chloroform was evaporated in a Büchi Rotavapor under slow decrease of pressure. The obtained film was further dessicated at least overnight in a dessicator under vacuum. After that, the lipid film was slowly hydrated on an orbital shaker (maximal speed: 250 rpm) using 50 mM PO4-100 mM NaCl, pH 7 buffer pre-heated at 60° C.
After completion of resuspension, a swelling step was carried out in order to further increase the phospholipid hydration, it consists of incubating the preparation at room temperature. The suspension was then pre-homogenized using a rotor-stator homogenizer (X620 CAT) for 12 min at 8000 rpm.
Microfluidization was then carried out using a microfluidizer (Model 110S-Serial 90181-Microfluidics Corporation) at 6 bars while keeping the microfluidization chamber at about 40° C. Sterile filtration was achieved on a PES filter (GD/X 0.2 μm, 25 mm, Whatman).
Lipidated molecules A3 and A1 were evaluated in vivo. The SIV-p27-containing formulations summarized in Table 1 were used to vaccinate 6-8 week old C57BL/6 female mice (10/group). The mice received two intramuscular injections of 50 μl, 14 days apart and were bled at different time points after prime and boost as illustrated in FIG. 1.
The innate and adaptive immune responses induced by the formulations containing the TLR7 agonists and the proprietary AS01B adjuvant (QS21+MPL) were also compared to the one induced by the corresponding AS01B-containing formulations and empty DPPC liposomes.

Turning to `CCCCCCCCCCCCCCCC(=O)OC[C@H](COP(=O)(O)OCCN1CCC(Cn2c(O)nc3c(N)nc(OCCCC)nc32)CC1)OC(=O)CCCCCCCCCCCCCCC` [Compound A1], the IL-6 in sera entry was “enhanced”, the TNF-α in sera entry was “enhanced” and the “chemokine MCP-1 in sera” value is listed as “enhanced”. Also, where the note is “comparison of A1 and A3 in DPPC liposome formulations”, the “relative potency in enhancing inflammatory cytokines TNF-α and IL-6” value is on record as “more potent than A3”.
On to `CCCCCCCCCCCCCCCC(=O)OC[C@H](COP(=O)(O)N1CCN(CCn2c(O)nc3c(N)nc(OCCCC)nc32)CC1)OC(=O)CCCCCCCCCCCCCCC` [Compound A3, 6-Amino-2-butoxy-9-[1-(1,2-dipalmitoyl-sn-glycero-3-phosphoramido)-4-piperazinylethyl]-8-hydroxypurine], for which the IL-6 in sera entry is “enhanced”, the TNF-α in sera entry was “enhanced” and the “chemokine MCP-1 in sera” value is given as “enhanced”.
